Laboratory results as given in patent publication EP0463492A1, “2,6-Diarylpyridin derivatives” (BAYER AG, priority 1990, dated 1992).

System: Testpflanzen
Experiment: Post-emergence test (greenhouse)
Format: in vivo
Details: post-emergence spray on test plants 5 - 15 cm high, 1000 l Wasser/ha; rated after three weeks as % Schädigung versus untreated control (0 % = keine Wirkung, 100 % = totale Vernichtung); application rates and plant species not given
Text: Post-emergence-Test (Gewächshaus) • Lösungsmittel: 5 Gewichtsteile Aceton • Emulgator: 1 Gewichtsteil Alkylarylpolyglykolether
Zur Herstellung einer zweckmäßigen Wirkstoffzubereitung vermischt man 1 Gewichtsteil Wirkstoff mit den angegebenen Menge Lösungsmittel, gibt die angegebene Menge Emulgator zu und verdünnt das Konzentrat mit Wasser auf die gewünschte Konzentration.
Mit der Wirkstoffzubereitung spritzt man Testpflanzen, welche eine Höhe von 5 - 15 cm haben so, daß die jeweils gewünschten Wirkstoffmengen pro Flächeneinheit ausgebracht werden. Die Konzentration der Spritzbrühe wird so gewählt, daß in 1000 I Wasser/ha die jeweils gewünschten Wirkstoffmengen ausgebracht werden. Nach drei Wochen wird der Schädigungsgrad der Pflanzen bonitiert in % Schädigung im Vergleich zur Entwicklung der unbehandelten Kontrolle.
Es bedeuten: • 0 % = keine Wirkung (wie unbehandelte Kontrolle) • 100 % = totale Vernichtung

SMILES: CCOc1cc(-c2ccccc2)nc(-c2cccc(CC)c2)c1 [Beispiel 2, 4-Ethoxy-2-(3-ethylphenyl)-6-phenyl-pyridin]
- Wirksamkeit und Nutzpflanzenselektivität: sehr gute Wirksamkeit und Nutzpflanzenselektivität
